In the NIST ThermoML archive (doi:10.1021/je800110r):
± gives the expanded uncertainty stated by the source.

Conditions: Liquid, Vibrating tube method

## CCCCCCCCCC [decane]
313.15 K, 25586 kPa
  mass density: 734.5 ± 2.1 kg/m3
313.15 K, 25902 kPa
  mass density: 734.7 ± 2.1 kg/m3
313.15 K, 25935 kPa
  mass density: 734.7 ± 2.1 kg/m3
313.15 K, 25969 kPa
  mass density: 734.6 ± 2.1 kg/m3
313.15 K, 25993 kPa
  mass density: 734.9 ± 2.1 kg/m3
313.15 K, 26027 kPa
  mass density: 734.7 ± 2.1 kg/m3
313.15 K, 26065 kPa
  mass density: 734.7 ± 2.1 kg/m3
313.15 K, 26104 kPa
  mass density: 734.9 ± 2.1 kg/m3
313.15 K, 26144 kPa
  mass density: 735 ± 2.1 kg/m3
313.15 K, 26173 kPa
  mass density: 734.9 ± 2.1 kg/m3
313.15 K, 26208 kPa
  mass density: 734.9 ± 2.1 kg/m3
313.15 K, 26233 kPa
  mass density: 734.9 ± 2.1 kg/m3
313.15 K, 26272 kPa
  mass density: 735 ± 2.1 kg/m3
313.15 K, 26306 kPa
  mass density: 735 ± 2.1 kg/m3
313.15 K, 26341 kPa
  mass density: 735 ± 2.1 kg/m3
313.15 K, 26370 kPa
  mass density: 735.1 ± 2.1 kg/m3
313.15 K, 26410 kPa
  mass density: 735 ± 2.1 kg/m3
313.15 K, 26440 kPa
  mass density: 735.2 ± 2.1 kg/m3
313.15 K, 26475 kPa
  mass density: 735.2 ± 2.1 kg/m3
313.15 K, 26510 kPa
  mass density: 735.1 ± 2.1 kg/m3
313.15 K, 26557 kPa
  mass density: 735.1 ± 2.1 kg/m3
313.15 K, 26582 kPa
  mass density: 735.1 ± 2.1 kg/m3
313.15 K, 26614 kPa
  mass density: 735.3 ± 2.1 kg/m3
313.15 K, 26655 kPa
  mass density: 735.3 ± 2.1 kg/m3
313.15 K, 26690 kPa
  mass density: 735.2 ± 2.1 kg/m3
313.15 K, 26722 kPa
  mass density: 735.3 ± 2.1 kg/m3
313.15 K, 26763 kPa
  mass density: 735.3 ± 2.1 kg/m3
313.15 K, 26799 kPa
  mass density: 735.4 ± 2.1 kg/m3
313.15 K, 26842 kPa
  mass density: 735.3 ± 2.1 kg/m3
313.15 K, 26874 kPa
  mass density: 735.3 ± 2.1 kg/m3
313.15 K, 26911 kPa
  mass density: 735.5 ± 2.1 kg/m3
313.15 K, 26941 kPa
  mass density: 735.5 ± 2.1 kg/m3
313.15 K, 26969 kPa
  mass density: 735.5 ± 2.1 kg/m3
313.15 K, 26998 kPa
  mass density: 735.6 ± 2.1 kg/m3
313.15 K, 27035 kPa
  mass density: 735.4 ± 2.1 kg/m3
313.15 K, 27058 kPa
  mass density: 735.5 ± 2.1 kg/m3
313.15 K, 27874 kPa
  mass density: 736 ± 2.1 kg/m3
313.15 K, 27972 kPa
  mass density: 736 ± 2.1 kg/m3
313.15 K, 28011 kPa
  mass density: 736.2 ± 2.1 kg/m3
313.15 K, 28036 kPa
  mass density: 736 ± 2.1 kg/m3
313.15 K, 28071 kPa
  mass density: 736.1 ± 2.1 kg/m3
313.15 K, 28101 kPa
  mass density: 736.2 ± 2.1 kg/m3
313.15 K, 28131 kPa
  mass density: 736.2 ± 2.1 kg/m3
313.15 K, 28162 kPa
  mass density: 736.3 ± 2.1 kg/m3
313.15 K, 28202 kPa
  mass density: 736.3 ± 2.1 kg/m3
313.15 K, 28237 kPa
  mass density: 736.3 ± 2.1 kg/m3
313.15 K, 28272 kPa
  mass density: 736.3 ± 2.1 kg/m3
313.15 K, 28297 kPa
  mass density: 736.3 ± 2.1 kg/m3
313.15 K, 28327 kPa
  mass density: 736.3 ± 2.1 kg/m3
313.15 K, 28372 kPa
  mass density: 736.4 ± 2.1 kg/m3
313.15 K, 28403 kPa
  mass density: 736.4 ± 2.1 kg/m3
313.15 K, 28449 kPa
  mass density: 736.5 ± 2.1 kg/m3
313.15 K, 28480 kPa
  mass density: 736.5 ± 2.1 kg/m3
313.15 K, 28515 kPa
  mass density: 736.4 ± 2.1 kg/m3
313.15 K, 28542 kPa
  mass density: 736.5 ± 2.1 kg/m3
313.15 K, 28578 kPa
  mass density: 736.5 ± 2.1 kg/m3
313.15 K, 28619 kPa
  mass density: 736.5 ± 2.1 kg/m3
313.15 K, 28645 kPa
  mass density: 736.5 ± 2.1 kg/m3
313.15 K, 28692 kPa
  mass density: 736.6 ± 2.1 kg/m3
313.15 K, 28723 kPa
  mass density: 736.7 ± 2.1 kg/m3
313.15 K, 28750 kPa
  mass density: 736.7 ± 2.1 kg/m3
313.15 K, 28791 kPa
  mass density: 736.7 ± 2.1 kg/m3
313.15 K, 28828 kPa
  mass density: 736.6 ± 2.1 kg/m3
313.15 K, 28860 kPa
  mass density: 736.8 ± 2.1 kg/m3
313.15 K, 28902 kPa
  mass density: 736.7 ± 2.1 kg/m3
313.15 K, 28945 kPa
  mass density: 736.8 ± 2.1 kg/m3
313.15 K, 28971 kPa
  mass density: 736.8 ± 2.1 kg/m3
313.15 K, 29019 kPa
  mass density: 736.8 ± 2.1 kg/m3
313.15 K, 29061 kPa
  mass density: 736.9 ± 2.1 kg/m3
313.15 K, 29168 kPa
  mass density: 737 ± 2.1 kg/m3
313.15 K, 30647 kPa
  mass density: 737.9 ± 2.1 kg/m3
313.15 K, 30676 kPa
  mass density: 738 ± 2.1 kg/m3
313.15 K, 30710 kPa
  mass density: 737.9 ± 2.1 kg/m3
313.15 K, 30738 kPa
  mass density: 738 ± 2.1 kg/m3
313.15 K, 30777 kPa
  mass density: 738 ± 2.1 kg/m3
313.15 K, 30816 kPa
  mass density: 738.1 ± 2.1 kg/m3
313.15 K, 30856 kPa
  mass density: 738.1 ± 2.1 kg/m3
313.15 K, 30889 kPa
  mass density: 738.1 ± 2.1 kg/m3
313.15 K, 30929 kPa
  mass density: 738 ± 2.1 kg/m3
313.15 K, 30974 kPa
  mass density: 738.1 ± 2.1 kg/m3
313.15 K, 31089 kPa
  mass density: 738.2 ± 2.1 kg/m3
313.15 K, 31432 kPa
  mass density: 738.4 ± 2.1 kg/m3
313.15 K, 31467 kPa
  mass density: 738.4 ± 2.1 kg/m3
313.15 K, 31515 kPa
  mass density: 738.4 ± 2.1 kg/m3
313.15 K, 31562 kPa
  mass density: 738.5 ± 2.1 kg/m3
313.15 K, 31610 kPa
  mass density: 738.4 ± 2.1 kg/m3
313.15 K, 31646 kPa
  mass density: 738.6 ± 2.1 kg/m3
313.15 K, 31694 kPa
  mass density: 738.6 ± 2.1 kg/m3
313.15 K, 31736 kPa
  mass density: 738.6 ± 2.1 kg/m3
313.15 K, 31766 kPa
  mass density: 738.4 ± 2.1 kg/m3
313.15 K, 31815 kPa
  mass density: 738.6 ± 2.1 kg/m3
313.15 K, 31856 kPa
  mass density: 738.6 ± 2.1 kg/m3
313.15 K, 31901 kPa
  mass density: 738.7 ± 2.1 kg/m3
313.15 K, 31947 kPa
  mass density: 738.7 ± 2.1 kg/m3
313.15 K, 31981 kPa
  mass density: 738.7 ± 2.1 kg/m3
313.15 K, 32023 kPa
  mass density: 738.8 ± 2.1 kg/m3
313.15 K, 32070 kPa
  mass density: 738.8 ± 2.1 kg/m3
313.15 K, 32100 kPa
  mass density: 738.9 ± 2.1 kg/m3
313.15 K, 32135 kPa
  mass density: 738.9 ± 2.1 kg/m3
313.15 K, 32176 kPa
  mass density: 738.9 ± 2.1 kg/m3
313.15 K, 32213 kPa
  mass density: 738.9 ± 2.1 kg/m3
313.15 K, 32253 kPa
  mass density: 738.9 ± 2.1 kg/m3
313.15 K, 32294 kPa
  mass density: 738.9 ± 2.1 kg/m3
313.15 K, 32345 kPa
  mass density: 739 ± 2.1 kg/m3
313.15 K, 32379 kPa
  mass density: 739 ± 2.1 kg/m3
313.15 K, 32413 kPa
  mass density: 739 ± 2.1 kg/m3
313.15 K, 32459 kPa
  mass density: 739.1 ± 2.1 kg/m3
313.15 K, 32491 kPa
  mass density: 739.1 ± 2.1 kg/m3
313.15 K, 32528 kPa
  mass density: 739.1 ± 2.1 kg/m3
313.15 K, 32561 kPa
  mass density: 739.1 ± 2.1 kg/m3
313.15 K, 32592 kPa
  mass density: 739.3 ± 2.1 kg/m3
313.15 K, 32633 kPa
  mass density: 739.1 ± 2.1 kg/m3
313.15 K, 32666 kPa
  mass density: 739.2 ± 2.1 kg/m3
313.15 K, 32704 kPa
  mass density: 739.3 ± 2.1 kg/m3
313.15 K, 32737 kPa
  mass density: 739.3 ± 2.1 kg/m3
313.15 K, 32770 kPa
  mass density: 739.3 ± 2.1 kg/m3
313.16 K, 339 kPa
  mass density: 714.8 ± 2 kg/m3
313.16 K, 365 kPa
  mass density: 714.9 ± 2 kg/m3
313.16 K, 391 kPa
  mass density: 715 ± 2 kg/m3
313.16 K, 423 kPa
  mass density: 715 ± 2 kg/m3
313.16 K, 450 kPa
  mass density: 714.9 ± 2 kg/m3
313.16 K, 478 kPa
  mass density: 715 ± 2 kg/m3
313.16 K, 508 kPa
  mass density: 715 ± 2 kg/m3
313.16 K, 548 kPa
  mass density: 715.1 ± 2 kg/m3
313.16 K, 579 kPa
  mass density: 715.1 ± 2 kg/m3
313.16 K, 595 kPa
  mass density: 715.2 ± 2 kg/m3
313.16 K, 607 kPa
  mass density: 715.1 ± 2 kg/m3
313.16 K, 620 kPa
  mass density: 715 ± 2 kg/m3
313.16 K, 631 kPa
  mass density: 715.1 ± 2 kg/m3
313.16 K, 651 kPa
  mass density: 715.2 ± 2 kg/m3
313.16 K, 661 kPa
  mass density: 715.1 ± 2 kg/m3
313.16 K, 673 kPa
  mass density: 715.3 ± 2 kg/m3
313.16 K, 686 kPa
  mass density: 715.2 ± 2 kg/m3
313.16 K, 699 kPa
  mass density: 715.2 ± 2 kg/m3
313.16 K, 719 kPa
  mass density: 715.2 ± 2 kg/m3
313.16 K, 733 kPa
  mass density: 715.2 ± 2 kg/m3
